{
  "source": "patent US20260226054A1",
  "about": "“CRYSTAL FORM AND AMORPHOUS SUBSTANCE OF INDOLINE SPIRO COMPOUND, AND PREPARATION METHOD THEREFOR AND USE THEREOF” (CHANGCHUN GENESCIENCE PHARMACEUTICAL CO., LTD., priority 2022, published 2026)",
  "assay_type_in_all_cases": "physicochemical",
  "key": {"[1]": {"test": "Dynamic vapor sorption (DVS) hygroscopicity", "procedure": "The sample was analyzed through Intrinsic DVS ([…]). The amount of test sample was about 20-30 mg. The temperature of a test room was controlled between 25±1° C., the relative humidity increased from 0% to 90% and then decreased to 0% at a rate of 10%/h, and mass data was recorded every 20 s.\nThe DVS curve was acquired from DVS Intrinsic through an SMS (Surface Measurement Systems). The relative humidity at 25° C. was calibrated according to deliquescent points of LiCl, Mg(NO3)2 and KCl."}, "[2]": {"test": "Stability Test 1 (80° C., lighting, 25° C./60% RH, 40° C./75% RH; HPLC)", "procedure": "• Chromatographic conditions: • Chromatographic column: C18 column; • Running time: 60 min; • UV detector: 210 nm; • Flow rate: 1.0 mL/min; • Injection volume: 5 μL.\nA certain amount of crystals and amorphous raw materials were weighed and placed in liquid phase vials, and a total of 5 parts were prepared. The 5 parts were respectively placed under 80° C. (opened), 25° C./60% RH (opened), and 40° C./75% RH (opened) and in a stable lighting chamber (closed, 5000±500 Lx), and the stability under lighting for 10 days, 80° C. 1 day, and the chemical stability under 25° C. and 60% RH and under 40° C. and 75% RH for 1 week were determined by liquid phase, and the XRPD of the solid was determined."}, "[3]": {"test": "Solubility test of amorphous substance (room temperature)", "conditions": "read-out: Roughly measured solubility", "procedure": "About 10 mg of amorphous substance was weighted and placed into an 8 mL glass bottle, and a solvent was gradually added at room temperature. 5 μL of solvent was added each time until all the solids were dissolved, and if 8 mL of solvent was added and the solids were not dissolved, the solvent addition was stopped. Table 1. Test results of solubility of amorphous substance of compound represented by Formula (1) (room temperature)"}, "[4]": {"conditions": "25° C., 60% RH (opened), 1 week"}, "[5]": {"conditions": "40° C., 75% RH (opened), 1 week"}, "[6]": {"conditions": "Lighting (closed, 5000±500 Lx), 10 Days"}},
  "note": "Like-named read-outs stand apart in the source and are kept apart here.",
  "data": [
    {"molecule": "CC(C)C(=O)O[C@@H](C)OC(=O)NC(C)(C)C(=O)N[C@H](COCc1ccccc1)C(=O)N1CCC2(CC1)CN(S(C)(=O)=O)c1ccccc12", "note": "[amorphous substance, (4R,11R)-7,7-dimethyl-4-(1-(methylsulfonyl)spiro[indoldoline-3,4′-piperidine]-1′-carbonyl)-6,9-dioxo-1-phenyl-2,10-dioxa-5,8-diazadodecane-11-ylisobutyrate]", "values": [
      {"measurement": "Hygroscopicity (DVS)", "setting": "[1]; 80% humidity, 25° C.", "result": "slightly hygroscopic"},
      {"measurement": "Solid form by XRPD before and after DVS test", "setting": "[1]; XRPD before vs after DVS", "result": "the morphology of the solid did not change"},
      {"measurement": "Degradation (%)", "setting": "[2]; [4]", "result": 0.01, "unit": "%"},
      {"measurement": "Purity (%)", "setting": "[2]; [4]", "result": 99.27, "unit": "%"},
      {"measurement": "Degradation (%)", "setting": "[2]; [5]", "result": 0.03, "unit": "%"},
      {"measurement": "Purity (%)", "setting": "[2]; [5]", "result": 99.25, "unit": "%"},
      {"measurement": "Degradation (%)", "setting": "[2]; 80° C. (opened), 1 Day", "result": 0.18, "unit": "%"},
      {"measurement": "Purity (%)", "setting": "[2]; 80° C. (opened), 1 Day", "result": 99.10, "unit": "%"},
      {"measurement": "Purity (%)", "setting": "[2]; Initial", "result": 99.28, "unit": "%"},
      {"measurement": "Degradation (%)", "setting": "[2]; [6]", "result": 1.02, "unit": "%"},
      {"measurement": "Purity (%)", "setting": "[2]; [6]", "result": 98.26, "unit": "%"},
      {"measurement": "solubility", "setting": "[3]; organic solvent or mixture, thermodynamic from solid, 1,4-Dioxane", "result": "> 760", "unit": "mg/mL"},
      {"measurement": "solubility", "setting": "[3]; organic solvent or mixture, thermodynamic from solid, Acetone", "result": "> 520", "unit": "mg/mL"},
      {"measurement": "solubility", "setting": "[3]; organic solvent or mixture, thermodynamic from solid, Acetonitrile", "result": "> 587", "unit": "mg/mL"},
      {"measurement": "solubility", "setting": "[3]; organic solvent or mixture, thermodynamic from solid, Anisole", "result": "> 510", "unit": "mg/mL"},
      {"measurement": "solubility", "setting": "[3]; organic solvent or mixture, thermodynamic from solid, Butanone", "result": "> 700", "unit": "mg/mL"},
      {"measurement": "solubility", "setting": "[3]; organic solvent or mixture, thermodynamic from solid, Cyclohexane", "result": "< 1.2", "unit": "mg/mL"},
      {"measurement": "solubility", "setting": "[3]; organic solvent or mixture, thermodynamic from solid, Dichloromethane", "result": "> 798", "unit": "mg/mL"},
      {"measurement": "solubility", "setting": "[3]; organic solvent or mixture, thermodynamic from solid, Dimethyl sulfoxide", "result": "> 450", "unit": "mg/mL"},
      {"measurement": "solubility", "setting": "[3]; organic solvent or mixture, thermodynamic from solid, Ethanol", "result": "> 480", "unit": "mg/mL"},
      {"measurement": "solubility", "setting": "[3]; organic solvent or mixture, thermodynamic from solid, Ethyl acetate", "result": "> 600", "unit": "mg/mL"},
      {"measurement": "solubility", "setting": "[3]; organic solvent or mixture, thermodynamic from solid, Ethyl formate", "result": "> 405", "unit": "mg/mL"},
      {"measurement": "solubility", "setting": "[3]; organic solvent or mixture, thermodynamic from solid, Isopropanol", "result": "> 432", "unit": "mg/mL"},
      {"measurement": "solubility", "setting": "[3]; organic solvent or mixture, thermodynamic from solid, Isopropyl acetate", "result": "> 643", "unit": "mg/mL"},
      {"measurement": "solubility", "setting": "[3]; organic solvent or mixture, thermodynamic from solid, Methanol", "result": "> 725", "unit": "mg/mL"},
      {"measurement": "solubility", "setting": "[3]; organic solvent or mixture, thermodynamic from solid, Methyl isobutyl ketone", "result": "> 400", "unit": "mg/mL"},
      {"measurement": "solubility", "setting": "[3]; organic solvent or mixture, thermodynamic from solid, Methyl tert-butyl ether", "result": "> 70", "unit": "mg/mL"},
      {"measurement": "solubility", "setting": "[3]; organic solvent or mixture, thermodynamic from solid, N-heptane", "result": "< 1.3", "unit": "mg/mL"},
      {"measurement": "solubility", "setting": "[3]; organic solvent or mixture, thermodynamic from solid, N-hexane", "result": "< 1.2", "unit": "mg/mL"},
      {"measurement": "solubility", "setting": "[3]; organic solvent or mixture, thermodynamic from solid, N-propanol", "result": "> 460", "unit": "mg/mL"},
      {"measurement": "solubility", "setting": "[3]; organic solvent or mixture, thermodynamic from solid, Tetrahydrofuran", "result": "> 553", "unit": "mg/mL"},
      {"measurement": "solubility", "setting": "[3]; organic solvent or mixture, thermodynamic from solid, Toluene", "result": "> 473", "unit": "mg/mL"},
      {"measurement": "solubility", "setting": "[3]; thermodynamic from solid, Water", "result": "< 1.3", "unit": "mg/mL"}
    ]}
  ]
}
